Data taken from ChEMBL document CHEMBL1139090, “Synthesis of potent and tissue-selective androgen receptor modulators (SARMs): 2-(2,2,2)-Trifluoroethyl-benzimidazole scaffold” (Bioorg Med Chem Lett, 2007).
Calls of active or inactive are those of the source. The rule behind the calls is not given here.

Species: Rattus norvegicus
Assay: Stimulation of levator ani muscle weight in immature Sprague-Dawley rat
Type: functional
Settings: not given

Compound	ED50 [mg/day]
CC(C)C(O)(c1nc2cc(Cl)c(Cl)cc2[nH]1)C(F)(F)F (stereo unspecified)	0.05
C/C=C\C(O)(c1nc2cc(Cl)c(Cl)cc2[nH]1)C(F)(F)F (stereo unspecified)	0.11
C=CCC(O)(c1nc2cc(Cl)c(Cl)cc2[nH]1)C(F)(F)F (stereo unspecified)	1.4
C=C=CC(O)(c1nc2cc(Cl)c(Cl)cc2[nH]1)C(F)(F)F (stereo unspecified)	0.075
CCSCC(O)(c1nc2cc(Cl)c(Cl)cc2[nH]1)C(F)(F)F (stereo unspecified)	0.1
C=CC(O)(c1nc2cc(Cl)c(Cl)cc2[nH]1)C(F)(F)F (stereo unspecified)	0.04
N#CCC(O)(c1nc2cc(Cl)c(Cl)cc2[nH]1)C(F)(F)F (stereo unspecified)	0.03

Species: Rattus norvegicus
Assay: Inhibition of prostate weight in immature Sprague-Dawley rat
Type: functional, Prostate gland
Settings: not given

Compound	ID50 [mg/day]
C=CCC(O)(c1nc2cc(Cl)c(Cl)cc2[nH]1)C(F)(F)F (stereo unspecified)	0.67

Each molecule was assayed against T1, Androgen receptor (Homo sapiens, UniProt P10275) (assay: Binding affinity at androgen receptor expressed in COS cells by whole cell binding assay). Settings: not given.
T1 sequence (P10275 whole entry): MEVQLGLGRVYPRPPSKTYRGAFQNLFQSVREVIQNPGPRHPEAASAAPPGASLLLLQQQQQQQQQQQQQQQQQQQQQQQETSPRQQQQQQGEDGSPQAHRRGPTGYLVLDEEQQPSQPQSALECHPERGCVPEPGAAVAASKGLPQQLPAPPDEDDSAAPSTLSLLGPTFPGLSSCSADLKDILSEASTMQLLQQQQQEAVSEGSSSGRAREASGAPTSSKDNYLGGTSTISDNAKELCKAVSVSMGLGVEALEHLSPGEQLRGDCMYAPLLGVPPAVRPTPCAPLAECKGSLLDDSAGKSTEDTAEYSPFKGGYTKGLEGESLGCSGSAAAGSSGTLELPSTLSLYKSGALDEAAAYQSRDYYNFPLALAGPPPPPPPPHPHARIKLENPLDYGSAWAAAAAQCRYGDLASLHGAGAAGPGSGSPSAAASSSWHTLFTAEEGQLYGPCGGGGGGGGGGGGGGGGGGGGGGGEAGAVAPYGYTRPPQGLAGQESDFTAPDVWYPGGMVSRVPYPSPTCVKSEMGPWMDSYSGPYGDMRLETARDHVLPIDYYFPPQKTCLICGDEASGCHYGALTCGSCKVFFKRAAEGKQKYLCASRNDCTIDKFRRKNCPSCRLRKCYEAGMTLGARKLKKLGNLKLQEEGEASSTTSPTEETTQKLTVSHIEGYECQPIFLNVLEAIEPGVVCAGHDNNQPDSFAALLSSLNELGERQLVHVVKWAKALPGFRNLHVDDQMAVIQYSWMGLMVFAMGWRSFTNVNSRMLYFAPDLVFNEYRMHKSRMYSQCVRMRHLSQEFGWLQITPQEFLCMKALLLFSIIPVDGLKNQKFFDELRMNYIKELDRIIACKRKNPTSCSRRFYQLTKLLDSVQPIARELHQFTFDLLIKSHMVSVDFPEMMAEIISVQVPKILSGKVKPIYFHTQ
Type: cell-based

Compound	IC50 [nM]
CC(C)C(O)(c1nc2cc(Cl)c(Cl)cc2[nH]1)C(F)(F)F (stereo unspecified)	2
CCSCC(O)(c1nc2cc(Cl)c(Cl)cc2[nH]1)C(F)(F)F (stereo unspecified)	17
C=CC(O)(c1nc2cc(Cl)c(Cl)cc2[nH]1)C(F)(F)F (stereo unspecified)	7

These molecules were tested on Rattus norvegicus (assay: Inhibition of prostate weight in immature Sprague-Dawley rat at 2 mg/day, sc relative to testosterone). Settings: not given.
Type: functional, Prostate gland

Compound	Inhibition [%]
CC(C)C(O)(c1nc2cc(Cl)c(Cl)cc2[nH]1)C(F)(F)F (stereo unspecified)	33
C/C=C\C(O)(c1nc2cc(Cl)c(Cl)cc2[nH]1)C(F)(F)F (stereo unspecified)	70
C=C(C)CC(O)(c1nc2cc(Cl)c(Cl)cc2[nH]1)C(F)(F)F (stereo unspecified)	59
C/C=C/C(O)(c1nc2cc(Cl)c(Cl)cc2[nH]1)C(F)(F)F (stereo unspecified)	61
C=C(C)C(O)(c1nc2cc(Cl)c(Cl)cc2[nH]1)C(F)(F)F (stereo unspecified)	127
CC(C)=C(C)C(O)(c1nc2cc(Cl)c(Cl)cc2[nH]1)C(F)(F)F (stereo unspecified)	47
OC(c1ccccc1)(c1nc2cc(Cl)c(Cl)cc2[nH]1)C(F)(F)F (stereo unspecified)	61
C=CCC(O)(c1nc2cc(Cl)c(Cl)cc2[nH]1)C(F)(F)F (stereo unspecified)	87
FC(F)(F)C1(c2nc3cc(Cl)c(Cl)cc3[nH]2)CCCO1 (stereo unspecified)	55
CC#CC(O)(c1nc2cc(Cl)c(Cl)cc2[nH]1)C(F)(F)F (stereo unspecified)	79
OC(Cc1ccc(F)cc1)(c1nc2cc(Cl)c(Cl)cc2[nH]1)C(F)(F)F (stereo unspecified)	72
C=C=CC(O)(c1nc2cc(Cl)c(Cl)cc2[nH]1)C(F)(F)F (stereo unspecified)	85
C/C=C/CC(O)(c1nc2cc(Cl)c(Cl)cc2[nH]1)C(F)(F)F (stereo unspecified)	74
FC(F)(F)C1(c2nc3cc(Cl)c(Cl)cc3[nH]2)C=CCN1 (stereo unspecified)	57
CC(C)=CC(O)(c1nc2cc(Cl)c(Cl)cc2[nH]1)C(F)(F)F (stereo unspecified)	45
FC(F)(F)C1(c2nc3cc(Cl)c(Cl)cc3[nH]2)CCCN1 (stereo unspecified)	35
CCSCC(O)(c1nc2cc(Cl)c(Cl)cc2[nH]1)C(F)(F)F (stereo unspecified)	31
OC(Cc1ccccc1)(c1nc2cc(Cl)c(Cl)cc2[nH]1)C(F)(F)F (stereo unspecified)	86
C[C@](O)(CS(=O)(=O)c1ccc(F)cc1)C(=O)Nc1ccc(C#N)c(C(F)(F)F)c1 [(R)-BICALUTAMIDE]	70
CCC(O)(c1nc2cc(Cl)c(Cl)cc2[nH]1)C(F)(F)F (stereo unspecified)	25
CCC(C)(C)C(O)(c1nc2cc(Cl)c(Cl)cc2[nH]1)C(F)(F)F (stereo unspecified)	42
C=CC(O)(c1nc2cc(Cl)c(Cl)cc2[nH]1)C(F)(F)F (stereo unspecified)	56
CC(C)=CCC(O)(c1nc2cc(Cl)c(Cl)cc2[nH]1)C(F)(F)F (stereo unspecified)	71
C=C=C(C)C(O)(c1nc2cc(Cl)c(Cl)cc2[nH]1)C(F)(F)F (stereo unspecified)	78
CCCC(O)(c1nc2cc(Cl)c(Cl)cc2[nH]1)C(F)(F)F (stereo unspecified)	63
C#CCC(O)(c1nc2cc(Cl)c(Cl)cc2[nH]1)C(F)(F)F (stereo unspecified)	68
N#CCC(O)(c1nc2cc(Cl)c(Cl)cc2[nH]1)C(F)(F)F (stereo unspecified)	9

Same assay, conditions: Prostate gland

Compound	Activity
OC(CSCC(F)(F)F)(c1nc2cc(Cl)c(Cl)cc2[nH]1)C(F)(F)F (stereo unspecified)	inactive
FC(F)(F)C1(c2nc3cc(Cl)c(Cl)cc3[nH]2)C=CCO1 (stereo unspecified)	inactive

Species: Rattus norvegicus
Assay: Toxicity in immature Sprague-Dawley rat at 3 mg/day
Type: organism-based
Settings: in vivo

Compound	Activity
CCC(O)(c1nc2cc(Cl)c(Cl)cc2[nH]1)C(F)(F)F (stereo unspecified)	Toxic

Species: Rattus norvegicus
Assay: Stimulation of levator ani muscle weight in mature Sprague-Dawley rat
Type: functional
Settings: not given

Compound	ED50 [mg/kg]
C=CC(O)(c1nc2cc(Cl)c(Cl)cc2[nH]1)C(F)(F)F (stereo unspecified)	< 0.3

Species: Rattus norvegicus
Assay: Stimulation of levator ani muscle weight in immature Sprague-Dawley rat at 2 mg/day relative to testosterone
Type: functional
Settings: not given

Compound	Activity
CC(C)C(O)(c1nc2cc(Cl)c(Cl)cc2[nH]1)C(F)(F)F (stereo unspecified)	87%
C/C=C\C(O)(c1nc2cc(Cl)c(Cl)cc2[nH]1)C(F)(F)F (stereo unspecified)	73%
C=C(C)CC(O)(c1nc2cc(Cl)c(Cl)cc2[nH]1)C(F)(F)F (stereo unspecified)	17%
C/C=C/C(O)(c1nc2cc(Cl)c(Cl)cc2[nH]1)C(F)(F)F (stereo unspecified)	23%
C=C(C)C(O)(c1nc2cc(Cl)c(Cl)cc2[nH]1)C(F)(F)F (stereo unspecified)	inactive
OC(CSCC(F)(F)F)(c1nc2cc(Cl)c(Cl)cc2[nH]1)C(F)(F)F (stereo unspecified)	26%
CC(C)=C(C)C(O)(c1nc2cc(Cl)c(Cl)cc2[nH]1)C(F)(F)F (stereo unspecified)	inactive
OC(c1ccccc1)(c1nc2cc(Cl)c(Cl)cc2[nH]1)C(F)(F)F (stereo unspecified)	inactive
C=CCC(O)(c1nc2cc(Cl)c(Cl)cc2[nH]1)C(F)(F)F (stereo unspecified)	34%
FC(F)(F)C1(c2nc3cc(Cl)c(Cl)cc3[nH]2)CCCO1 (stereo unspecified)	64%
CC#CC(O)(c1nc2cc(Cl)c(Cl)cc2[nH]1)C(F)(F)F (stereo unspecified)	inactive
FC(F)(F)C1(c2nc3cc(Cl)c(Cl)cc3[nH]2)C=CCO1 (stereo unspecified)	50%
OC(Cc1ccc(F)cc1)(c1nc2cc(Cl)c(Cl)cc2[nH]1)C(F)(F)F (stereo unspecified)	inactive
C=C=CC(O)(c1nc2cc(Cl)c(Cl)cc2[nH]1)C(F)(F)F (stereo unspecified)	99%
C/C=C/CC(O)(c1nc2cc(Cl)c(Cl)cc2[nH]1)C(F)(F)F (stereo unspecified)	10%
FC(F)(F)C1(c2nc3cc(Cl)c(Cl)cc3[nH]2)C=CCN1 (stereo unspecified)	8%
CC(C)=CC(O)(c1nc2cc(Cl)c(Cl)cc2[nH]1)C(F)(F)F (stereo unspecified)	13%
FC(F)(F)C1(c2nc3cc(Cl)c(Cl)cc3[nH]2)CCCN1 (stereo unspecified)	4%
CCSCC(O)(c1nc2cc(Cl)c(Cl)cc2[nH]1)C(F)(F)F (stereo unspecified)	96%
OC(Cc1ccccc1)(c1nc2cc(Cl)c(Cl)cc2[nH]1)C(F)(F)F (stereo unspecified)	inactive
C[C@](O)(CS(=O)(=O)c1ccc(F)cc1)C(=O)Nc1ccc(C#N)c(C(F)(F)F)c1 [(R)-BICALUTAMIDE]	inactive
CCC(O)(c1nc2cc(Cl)c(Cl)cc2[nH]1)C(F)(F)F (stereo unspecified)	106%
CCC(C)(C)C(O)(c1nc2cc(Cl)c(Cl)cc2[nH]1)C(F)(F)F (stereo unspecified)	11%
C=CC(O)(c1nc2cc(Cl)c(Cl)cc2[nH]1)C(F)(F)F (stereo unspecified)	82%
CC(C)=CCC(O)(c1nc2cc(Cl)c(Cl)cc2[nH]1)C(F)(F)F (stereo unspecified)	inactive
C=C=C(C)C(O)(c1nc2cc(Cl)c(Cl)cc2[nH]1)C(F)(F)F (stereo unspecified)	15%
CCCC(O)(c1nc2cc(Cl)c(Cl)cc2[nH]1)C(F)(F)F (stereo unspecified)	67%
C#CCC(O)(c1nc2cc(Cl)c(Cl)cc2[nH]1)C(F)(F)F (stereo unspecified)	71%
N#CCC(O)(c1nc2cc(Cl)c(Cl)cc2[nH]1)C(F)(F)F (stereo unspecified)	126%
